Like-named read-outs stand apart in the source and are kept apart here.
Experiments:
[1] = tested on: Colo205 (doxorubicin-sensitive human colon adenocarcinoma cell line); assay: MTT assay, cytotoxic effect on Colo205; type: cell-based; details: COLO 205, 24 h incubation
Description: (§1) The doxorubicin-sensitive Colo205 (ATCC-CCL-222) and the doxorubicin-resistant ABCB1- and LRP-expressing Colo320/MDR-LRP (ATCC-CCL-220.1) human colon adenocarcinoma cell lines were obtained from LGC Promochem in Teddington, UK. For culturing, the RPMI 1640 medium was applied and was supplemented with a 10% heat-inactivated foetal bovine serum (FBS), 2 mM L-glutamine, 1 mM Na-pyruvate and 10 mM HEPES along with nystatin and gentamicin.
(§2) The anticancer activity of the compounds was tested in 96-well flat-bottomed microtiter plates. In this assay, the two-fold serial dilutions of the compounds (concentration range: 100–0.19 μM) were made in a 100 μL RPMI 1640 medium. Next, 1 × 10^4 of human colonic adenocarcinoma cells (Colo205 or Colo320) in a 100 μL RPMI 1640 medium were added to each well except for the medium control wells. The starting concentration of the solvent DMSO in the plate was 2% v/v. The samples were incubated at 37 °C for 24 h. At the end of the incubation, 20 μL of an MTT (thiazolyl blue tetrazolium bromide) solution (from a 5 mg/mL stock solution) was pipetted to each well. After incubation at 37 °C for 4 h, 100 μL of a sodium dodecyl sulfate (SDS) solution (10% SDS in 0.01 M HCl) was pipetted to each well, and the plates were kept at 37 °C overnight. The growth of the cells was determined by measuring the optical density (OD) at 540 nm (refering to 630 nm) with a Multiscan EX ELISA reader (Thermo Labsystems, Cheshire, WA, USA). The inhibition of cell growth was calculated as IC50 values, defined as the inhibitory dose that reduces the growth of the cells exposed to the tested compounds by 50%. The IC50 values and the SD of the triplicate experiments were determined using GraphPad Prism software version 5.00 for Windows with a non-linear regression curve fit (GraphPad Software, San Diego, CA, USA; www.graphpad.com). Doxorubicin (from a 2 mg/mL stock solution, Teva Pharmaceuticals, Singapore) served as a positive control.
(§3) Since several sesquiterpene lactone-based aminoadducts exerted a significant cytotoxic action on different human cancer cell lines, the in vitro cytotoxic activities of the prepared grossheimin-based amino analogues were also tested on human colon adenocarcinoma lines, including Colo205 and Colo320 by MTT assay.

[2] = tested on: Colo320/MDR-LRP (doxorubicin-resistant ABCB1- and LRP-expressing human colon adenocarcinoma cell line); assay: MTT assay, cytotoxic effect on Colo320; type: cell-based; details: COLO 320, 24 h incubation
Description: as §1, §2, §3

CDD-19Lu fibroblasts = assay: Cytotoxic effect on fibroblasts; type: cell-based
Description: as §2
3. Cytotoxic effects of grossheimin-based aminoanalogues
Table S1. Cytotoxic effects of grossheimin-based aminoanalogues on colon adenocarcinoma cell lines and
CDD-19Lu fibroblasts. Doxorubicin (DOX) was applied as a positive control . n.d: not determined. Starting
concentration of grossheimin-based aminoanalogs and DOX in the assay with CDD-19Lu fibroblasts is 100 and […]

MDA-MB-231 = tested on: MDA-MB-231; set-up: method as in doi:10.14188/j.ajsh.2023.03.009; details: cited from earlier work
[3] = tested on: colorectal cancer HCT-116 cell lines; set-up: method as in doi:10.14188/j.ajsh.2023.03.009; details: cited from earlier work
[4] = tested on: human colon adenocarcinoma lines, including Colo205 and Colo320; assay: MTT assay, colon adenocarcinoma lines; type: cell-based; details: text summary over Colo205 and Colo320, read-out: IC50 against colon adenocarcinoma cancers / malignant cell lines
Description: as §1
The anticancer activity of the compounds was tested in 96-well flat-bottomed microtiter plates. In this assay, the two-fold serial dilutions of the compounds (concentration range: 100–0.19 μM) were made in a 100 μL RPMI 1640 medium. Next, 1 × 10^4 of human colonic adenocarcinoma cells (Colo205 or Colo320) in a 100 μL RPMI 1640 medium were added to each well except for the medium control wells. The starting concentration of the solvent DMSO in the plate was 2% v/v. The samples were incubated at 37 °C for 24 h. […] The growth of the cells was determined by measuring the optical density (OD) at 540 nm (refering to 630 nm) with a Multiscan EX ELISA reader (Thermo Labsystems, Cheshire, WA, USA). […] The IC50 values and the SD of the triplicate experiments were determined using GraphPad Prism software version 5.00 for Windows with a non-linear regression curve fit (GraphPad Software, San Diego, CA, USA; www.graphpad.com). […]

[5] = Homo sapiens, CCD 19Lu, fibroblasts, Table S1, starting concentration 100 (analogues) and 8.62 (DOX), read-out: IC50 CCD-19Lu
[6] = Fibroblast, fibroblasts, Table 2, read-out: IC50 CDD-19Lu

Row | Compound | IC50 ([1]; Table S1) [µM] | IC50 ([2]; Table S1) [µM] | IC50 (CDD-19Lu fibroblasts; [5]) [µM] | also measured
1 | C=C1C[C@H](O)[C@@H]2[C@H](OC(=O)[C@H]2Cn2cnc3ccccc32)[C@H]2[C@H](C)[C@@H](O)C[C@@H]12 [Compound 16a] | > 100 | > 100 | > 100 | –
2 | C=C1C[C@H](O)[C@@H]2[C@H](OC(=O)[C@H]2CNC=O)[C@H]2[C@H](C)C(=O)C[C@@H]12 [Compound 7] | > 100 | > 100 | – | –
3 | C=C1C[C@H](O)[C@@H]2[C@H](OC(=O)[C@H]2CNCc2ccccc2)[C@H]2[C@H](C)[C@@H](O)C[C@@H]12 [Compound 6] | > 100 | > 100 | > 100 | –
4 | C=C1C[C@H](O)[C@@H]2[C@H](OC(=O)[C@H]2CNC=O)[C@H]2[C@H](C)[C@@H](O)C[C@@H]12 [Compound 14] | > 100 | > 100 | – | –
5 | C=C1C(=O)O[C@H]2[C@H]1[C@@H](O)CC(=C)[C@@H]1CC(=O)[C@@H](C)[C@H]21 [Compound 1, Grossheimin] | – | – | – | IC50 ([1]; Table 2): 23.3 ± 2.05 µM; IC50 ([2]; Table 2): 27.9 ± 2 µM; IC50 (CDD-19Lu fibroblasts; Fibroblast, read-out: IC50 CDD-19Lu): > 100 µM; IC50 (MDA-MB-231): 16.9 µM; IC50 [3]: 30.9 µM
6 | C=C1C[C@H](O)[C@@H]2[C@H](OC(=O)[C@H]2CSCc2ccccc2)[C@H]2[C@H](C)C(=O)C[C@@H]12 [Compound 8] | > 100 | > 100 | > 100 | –
7 | C=C1C(=O)O[C@H]2[C@H]1[C@@H](OC(C)=O)CC(=C)[C@@H]1CC(=O)[C@@H](C)[C@H]21 [Compound 2] | – | – | – | IC50 ([1]; Table 2): 8.21 ± 0.51 µM; IC50 ([2]; Table 2): 9.44 ± 0.41 µM; IC50 (CDD-19Lu fibroblasts; [6]): > 100 µM; IC50 [4]: ~9 µM
8 | C=C1C[C@H](OC(C)=O)[C@@H]2[C@H](OC(=O)[C@H]2C)[C@H]2[C@H](C)[C@@H](OC(C)=O)C[C@@H]12 [Compound 4] | > 100 | > 100 | > 100 | –
9 | C=C1C[C@H](O)[C@@H]2[C@H](OC(=O)[C@H]2CNCc2ccccc2)[C@H]2[C@H](C)C(=O)C[C@@H]12 [Compound 5] | > 100 | > 100 | > 100 | –
10 | C=C1C(=O)O[C@H]2[C@H]1[C@@H](OC(C)=O)CC(=C)[C@@H]1C[C@H](OC(C)=O)[C@@H](C)[C@H]21 [Compound 13] | – | – | – | IC50 ([1]; Table 2): 8.21 ± 0.51 µM; IC50 ([2]; Table 2): 6.98 ± 0.29 µM; IC50 (CDD-19Lu fibroblasts; [6]): 29.1 ± 0.46 µM; IC50 [4]: ~8 µM
11 | C=C1C(=O)O[C@H]2[C@H]1[C@@H](O)CC(=C)[C@@H]1C[C@H](O)[C@@H](C)[C@H]21 [Compound 12] | – | – | – | IC50 ([1]; Table 2): 63.8 ± 1.32 µM; IC50 ([2]; Table 2): 53.6 ± 1.6 µM; IC50 (CDD-19Lu fibroblasts; [6]): > 100 µM
12 | COc1cccc2c1C(=O)c1c(O)c3c(c(O)c1C2=O)C[C@@](O)(C(=O)CO)C[C@@H]3O[C@H]1C[C@H](N)[C@H](O)[C@H](C)O1 [DOX, Doxorubicin, reference compound] | – | – | – | IC50 ([1]; Table 2): 3.21 ± 0.03 µM; IC50 ([2]; Table 2): 4.36 ± 0.08 µM; IC50 (CDD-19Lu fibroblasts; [6]): > 8.62 µM
13 | C=C1C[C@H](O)[C@@H]2[C@H](OC(=O)[C@H]2COC)[C@H]2[C@H](C)C(=O)C[C@@H]12 [Compound 10] | > 100 | > 100 | – | –
14 | C=C1C[C@H](O)[C@@H]2[C@H](OC(=O)[C@H]2COC)[C@H]2[C@H](C)[C@@H](O)C[C@@H]12 [Compound 15] | > 100 | > 100 | – | –
15 | C=C1C[C@H](O)[C@@H]2[C@H](OC(=O)[C@H]2Cn2cnc3ccccc32)[C@H]2[C@H](C)C(=O)C[C@@H]12 [Compound 11f] | > 100 | > 100 | > 100 | –
16 | C=C1C[C@H](O)[C@@H]2[C@H](OC(=O)[C@H]2C)[C@H]2[C@H](C)[C@H](O)C[C@@H]12 [Compound 3] | > 100 | > 100 | > 100 | –
17 | C=C1C[C@H](O)[C@@H]2[C@H](OC(=O)[C@H]2CSCc2ccccc2)[C@H]2[C@H](C)[C@H](O)C[C@@H]12 [Compound 9] | > 100 | > 100 | > 100 | –

— article PMC12024577, “Synthesis and Antiproliferative Effects of Grossheimin-Derived Aminoanalogues” (Biomolecules, 2025)
